Reference: patent US20200239530A1, “COMPOUNDS AND METHODS OF MODULATING PROTEIN DEGRADATION” (Vividion Therapeutics, Inc., priority 2017, published 2020)

Assays:
Test in all cases: Cysteine liganding, probe competition
Type in all cases: binding
[1] = target: T1, NAA15 N-alpha-acetyltransferase 15, NatA auxiliary subun (Homo sapiens, UniProt Q9BXJ9)
T1 construct: Cells were resuspended in cold PBS on ice and sonicated with a probe sonicator to achieve lysis; endogenous in cells
T1 sequence (Q9BXJ9 1-866): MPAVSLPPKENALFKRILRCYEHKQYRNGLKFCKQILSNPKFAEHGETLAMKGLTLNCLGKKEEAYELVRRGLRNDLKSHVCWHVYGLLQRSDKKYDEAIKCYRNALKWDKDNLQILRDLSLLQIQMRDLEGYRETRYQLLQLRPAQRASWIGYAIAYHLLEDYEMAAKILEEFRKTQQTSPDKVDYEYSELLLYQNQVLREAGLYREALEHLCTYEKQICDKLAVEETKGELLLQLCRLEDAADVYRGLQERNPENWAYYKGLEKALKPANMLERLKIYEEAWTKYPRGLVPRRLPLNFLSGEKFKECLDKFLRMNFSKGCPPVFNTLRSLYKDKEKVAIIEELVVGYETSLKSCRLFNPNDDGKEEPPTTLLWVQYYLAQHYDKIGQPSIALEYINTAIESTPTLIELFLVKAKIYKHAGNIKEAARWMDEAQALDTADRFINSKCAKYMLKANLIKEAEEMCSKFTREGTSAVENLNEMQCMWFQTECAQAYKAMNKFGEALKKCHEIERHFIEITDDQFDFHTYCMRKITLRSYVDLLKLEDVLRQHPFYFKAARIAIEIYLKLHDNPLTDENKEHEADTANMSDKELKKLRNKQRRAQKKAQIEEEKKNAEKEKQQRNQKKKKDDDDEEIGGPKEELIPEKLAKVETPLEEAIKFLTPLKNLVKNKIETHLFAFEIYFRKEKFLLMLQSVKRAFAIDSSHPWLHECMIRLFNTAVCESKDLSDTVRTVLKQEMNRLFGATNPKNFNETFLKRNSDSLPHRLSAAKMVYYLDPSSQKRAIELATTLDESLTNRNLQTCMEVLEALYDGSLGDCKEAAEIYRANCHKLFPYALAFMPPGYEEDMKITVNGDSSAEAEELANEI
Outline: (§1)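 Lysates from probe-sonicated cells in PBS (5 mg/ml proteome) were exposed to compound for 1 hr at 25° C, then labelled with desthiobiotin iodoacetamide probe (10 mM stock) for 1 hr at 25° C. Probe-tagged peptides were streptavidin-enriched after trypsin digestion.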

[2] = target: T2, RPS6KA3 Ribosomal protein S6 kinase alpha-3 (Homo sapiens, UniProt P51812)
T2 construct: Cells were resuspended in cold PBS on ice and sonicated with a probe sonicator to achieve lysis; endogenous in cells
T2 sequence (P51812 whole entry): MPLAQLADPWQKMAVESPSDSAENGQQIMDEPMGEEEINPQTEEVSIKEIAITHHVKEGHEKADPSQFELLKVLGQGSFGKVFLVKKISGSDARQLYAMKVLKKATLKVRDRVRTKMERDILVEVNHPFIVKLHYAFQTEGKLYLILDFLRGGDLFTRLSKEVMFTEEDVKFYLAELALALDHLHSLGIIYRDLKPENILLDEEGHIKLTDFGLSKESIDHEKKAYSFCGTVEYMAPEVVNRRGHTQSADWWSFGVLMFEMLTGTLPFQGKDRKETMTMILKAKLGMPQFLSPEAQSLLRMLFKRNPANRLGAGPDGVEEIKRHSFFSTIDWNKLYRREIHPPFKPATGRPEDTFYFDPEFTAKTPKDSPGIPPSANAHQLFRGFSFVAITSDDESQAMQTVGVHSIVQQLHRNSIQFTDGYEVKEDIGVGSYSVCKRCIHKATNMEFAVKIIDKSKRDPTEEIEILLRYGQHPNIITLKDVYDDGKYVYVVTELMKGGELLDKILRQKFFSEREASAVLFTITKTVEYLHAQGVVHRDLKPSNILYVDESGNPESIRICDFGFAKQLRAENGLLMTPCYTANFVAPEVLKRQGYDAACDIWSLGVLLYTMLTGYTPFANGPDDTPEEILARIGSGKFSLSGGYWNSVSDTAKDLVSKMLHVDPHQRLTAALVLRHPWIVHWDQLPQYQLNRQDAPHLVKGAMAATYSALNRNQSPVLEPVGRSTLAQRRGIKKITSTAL
Outline: as §1

[3] = target: T3, UBR2 E3 ubiquitin-protein ligase UBR2 (Homo sapiens, UniProt Q8IWV8)
T3 construct: Cells were resuspended in cold PBS on ice and sonicated with a probe sonicator to achieve lysis; endogenous in cells
T3 sequence (Q8IWV8 whole entry): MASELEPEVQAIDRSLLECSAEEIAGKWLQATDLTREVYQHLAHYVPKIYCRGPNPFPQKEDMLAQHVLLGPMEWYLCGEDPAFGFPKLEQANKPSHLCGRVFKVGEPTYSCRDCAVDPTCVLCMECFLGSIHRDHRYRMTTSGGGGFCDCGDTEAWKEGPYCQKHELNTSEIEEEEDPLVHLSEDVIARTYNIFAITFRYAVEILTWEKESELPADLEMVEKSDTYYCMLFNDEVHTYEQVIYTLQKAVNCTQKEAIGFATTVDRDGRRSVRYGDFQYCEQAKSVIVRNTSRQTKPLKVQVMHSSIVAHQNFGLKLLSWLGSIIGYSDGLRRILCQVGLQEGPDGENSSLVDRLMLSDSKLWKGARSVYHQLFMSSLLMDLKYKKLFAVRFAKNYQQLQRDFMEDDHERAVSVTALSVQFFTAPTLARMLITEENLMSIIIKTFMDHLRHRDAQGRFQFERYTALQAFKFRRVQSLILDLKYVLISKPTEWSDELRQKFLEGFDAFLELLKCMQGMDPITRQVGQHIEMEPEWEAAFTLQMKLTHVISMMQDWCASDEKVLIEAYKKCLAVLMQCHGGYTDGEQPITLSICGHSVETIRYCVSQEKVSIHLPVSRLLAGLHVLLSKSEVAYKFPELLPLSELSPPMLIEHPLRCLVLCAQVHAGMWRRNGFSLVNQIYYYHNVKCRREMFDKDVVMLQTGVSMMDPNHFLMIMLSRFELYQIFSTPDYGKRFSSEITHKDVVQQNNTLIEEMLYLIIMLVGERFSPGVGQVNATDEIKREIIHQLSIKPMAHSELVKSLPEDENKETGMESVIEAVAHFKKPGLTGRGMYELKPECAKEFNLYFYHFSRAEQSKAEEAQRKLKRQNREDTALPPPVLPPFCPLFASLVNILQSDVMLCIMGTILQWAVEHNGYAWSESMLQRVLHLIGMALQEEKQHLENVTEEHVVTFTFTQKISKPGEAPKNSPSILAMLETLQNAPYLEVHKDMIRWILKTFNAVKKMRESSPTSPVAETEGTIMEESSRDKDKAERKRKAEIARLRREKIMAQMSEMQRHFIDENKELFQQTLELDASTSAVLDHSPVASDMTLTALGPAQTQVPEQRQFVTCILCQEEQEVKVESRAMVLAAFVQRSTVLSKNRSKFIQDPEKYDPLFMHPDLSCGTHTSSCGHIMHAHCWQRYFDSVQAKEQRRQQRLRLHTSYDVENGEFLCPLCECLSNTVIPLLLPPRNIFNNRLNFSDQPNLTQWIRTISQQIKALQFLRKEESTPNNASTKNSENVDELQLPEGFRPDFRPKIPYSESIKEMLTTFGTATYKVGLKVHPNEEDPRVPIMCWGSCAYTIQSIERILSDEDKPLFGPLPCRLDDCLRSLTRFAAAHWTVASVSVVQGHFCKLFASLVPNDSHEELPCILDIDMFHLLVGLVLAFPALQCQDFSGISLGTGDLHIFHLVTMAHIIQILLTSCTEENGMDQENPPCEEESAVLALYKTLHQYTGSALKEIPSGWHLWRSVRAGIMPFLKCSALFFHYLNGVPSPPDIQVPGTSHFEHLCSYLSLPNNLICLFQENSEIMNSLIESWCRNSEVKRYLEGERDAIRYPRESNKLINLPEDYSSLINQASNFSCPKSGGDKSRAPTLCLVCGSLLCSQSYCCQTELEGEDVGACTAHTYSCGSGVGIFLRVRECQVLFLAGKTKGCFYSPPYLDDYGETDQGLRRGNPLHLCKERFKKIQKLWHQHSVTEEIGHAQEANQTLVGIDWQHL
Outline: as §1

SMILES | Liganded ([1]; NAA15 Res# 817, uniprot Q9BXJ9) | Liganded ([2]; RPS6KA3 Res# 229, uniprot P51812) | Liganded ([3]; UBR2 Res# 1717, uniprot Q8IWV8) | 100 Max ([1]; uniprot Q9BXJ9) | 100 ave ([1]; uniprot Q9BXJ9) | 500 Max ([1]; uniprot Q9BXJ9) | 500 ave ([1]; uniprot Q9BXJ9) | 100 Max ([2]; uniprot P51812) | 100 ave ([2]; uniprot P51812) | 500 ave ([2]; uniprot P51812) | 500 Max ([2]; uniprot P51812, in % (unit assumed)) | 100 Max ([3]; uniprot Q8IWV8) | 100 ave ([3]; uniprot Q8IWV8) | 500 ave ([3]; uniprot Q8IWV8) | 500 Max ([3]; uniprot Q8IWV8, unit assumed)
COc1ccc2c(c1)CCCN2C(=O)CCl [KB02] | YES | YES | YES | – | – | – | – | – | – | – | – | – | – | – | –
O=C(CCl)Nc1cc(C(F)(F)F)cc(C(F)(F)F)c1 [KBO3] | – | – | – | −21.23 | −31.6767 | 14.66 | 14.66 | 1.03 | −4.767 | 30.61 | 30.61 | 18.5 | 8.3 | 60.0 | 65.9%
